From ChEMBL document CHEMBL5584333, “Evo312: An Evodiamine Analog and Novel PKCβI Inhibitor with Potent Antitumor Activity in Gemcitabine-Resistant Pancreatic Cancer” (J Med Chem, 2024)
Activity calls are given as the source filed them. The rule behind the calls is not given here.

Experiments:
[1] = Cytotoxicity against human MRC5 cells assessed as inhibition of cell growth incubated for 72 hrs by SRB assay; format: toxicity, cell-based
[2] = test system: Gemcitabine-resistant PANC-1; assay: Inhibition of p70S6K phosphorylation in human Gemcitabine-resistant PANC-1 cells at 160 nM incubated for 24 hrs by phospho-kinase array analysis; format: cell-based
PANC-1 = assay: Antiproliferative activity against human PANC-1 cells transfected with PKCbeta1 siRNA assessed as reduction in cell viability at 0.016 to 10 uM incubated for 72 hrs by MTT assay; format: functional, cell-based; settings: dose 0.016-10 µM
[3] = test system: Gemcitabine-resistant PANC-1; assay: Downregulation of PKCbeta1 expression in human Gemcitabine-resistant PANC-1 cells at 40 to 160 nM incubated for 24 hrs by Western blotting; format: functional, cell-based; settings: dose 40-160 nM
[4] = test system: Gemcitabine-resistant PANC-1; assay: Downregulation of PKCalpha expression in human Gemcitabine-resistant PANC-1 cells at 40 to 160 nM incubated for 24 hrs by Western blotting; format: functional, cell-based; settings: dose 40-160 nM
[5] = target: T1, Signal transducer and activator of transcription 5A (Homo sapiens) (UniProt P42229); assay: Inhibition of STAT5 phosphorylation in human Gemcitabine-resistant PANC-1 cells at 160 nM incubated for 24 hrs by phospho-kinase array analysis; format: cell-based
T1 sequence (whole entry): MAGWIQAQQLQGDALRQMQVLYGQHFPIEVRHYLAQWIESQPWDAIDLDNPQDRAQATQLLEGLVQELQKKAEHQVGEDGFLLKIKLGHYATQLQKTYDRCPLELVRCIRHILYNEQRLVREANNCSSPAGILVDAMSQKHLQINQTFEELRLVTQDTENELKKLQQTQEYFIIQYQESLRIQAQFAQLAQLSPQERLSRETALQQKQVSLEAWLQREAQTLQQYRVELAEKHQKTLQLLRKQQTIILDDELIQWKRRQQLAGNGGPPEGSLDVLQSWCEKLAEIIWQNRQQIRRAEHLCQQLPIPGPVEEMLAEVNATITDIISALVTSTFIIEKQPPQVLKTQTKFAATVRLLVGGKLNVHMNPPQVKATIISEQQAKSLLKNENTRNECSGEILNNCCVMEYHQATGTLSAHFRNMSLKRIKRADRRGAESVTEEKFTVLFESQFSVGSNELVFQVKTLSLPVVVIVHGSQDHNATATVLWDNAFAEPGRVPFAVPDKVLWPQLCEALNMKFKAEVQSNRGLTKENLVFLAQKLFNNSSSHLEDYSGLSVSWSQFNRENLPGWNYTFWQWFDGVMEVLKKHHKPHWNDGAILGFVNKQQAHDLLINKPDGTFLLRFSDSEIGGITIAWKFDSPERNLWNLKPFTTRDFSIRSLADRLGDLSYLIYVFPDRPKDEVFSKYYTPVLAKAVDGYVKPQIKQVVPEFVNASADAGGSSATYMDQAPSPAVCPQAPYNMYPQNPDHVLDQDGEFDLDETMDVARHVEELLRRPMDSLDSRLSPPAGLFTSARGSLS

[6] = test system: Gemcitabine-resistant PANC-1; assay: Downregulation of p-Akt expression in human Gemcitabine-resistant PANC-1 cells at 40 to 160 nM incubated for 24 hrs by Western blotting; format: functional, cell-based; settings: dose 40-160 nM
[7] = test system: Gemcitabine-resistant PANC-1; assay: Downregulation of p-GSK3beta expression in human Gemcitabine-resistant PANC-1 cells at 40 to 160 nM incubated for 24 hrs by Western blotting; format: functional, cell-based; settings: dose 40-160 nM
[8] = test system: Gemcitabine-resistant PANC-1; assay: Downregulation of p-p70S6K expression in human Gemcitabine-resistant PANC-1 cells at 40 to 160 nM incubated for 24 hrs by Western blotting; format: functional, cell-based; settings: dose 40-160 nM
[9] = test system: Gemcitabine-resistant PANC-1; assay: Downregulation of p-PRAS40 expression in human Gemcitabine-resistant PANC-1 cells at 40 to 160 nM incubated for 24 hrs by Western blotting; format: functional, cell-based; settings: dose 40-160 nM
[10] = test system: Gemcitabine-resistant PANC-1; assay: Effect on p70S6K expression in human Gemcitabine-resistant PANC-1 cells at 40 to 160 nM by Western blot analysis; format: functional, cell-based; settings: dose 40-160 nM
[11] = test system: Gemcitabine-resistant PANC-1; assay: Effect on PRAS40 expression in human Gemcitabine-resistant PANC-1 cells at 40 to 160 nM by Western blot analysis; format: functional, cell-based; settings: dose 40-160 nM
[12] = test system: Gemcitabine-resistant PANC-1; assay: Effect on STAT5 expression in human Gemcitabine-resistant PANC-1 cells at 40 to 160 nM by Western blot analysis; format: functional, cell-based; settings: dose 40-160 nM
[13] = test system: Gemcitabine-resistant PANC-1; assay: Cell cycle distribution in human Gemcitabine-resistant PANC-1 cells assessed as sub-G1 phase cells at 40 nM incubated for 24 hrs by RNase/PI staining based flow cytometric analysis (reference value: 0.30 %); format: functional
[14] = test system: Gemcitabine-resistant PANC-1; assay: Cell cycle distribution in human Gemcitabine-resistant PANC-1 cells assessed as sub-G1 phase cells at 80 nM incubated for 24 hrs by RNase/PI staining based flow cytometric analysis (reference value: 0.30 %); format: functional
[15] = test system: Gemcitabine-resistant PANC-1; assay: Cell cycle distribution in human Gemcitabine-resistant PANC-1 cells assessed as sub-G1 phase cells at 120 nM incubated for 24 hrs by RNase/PI staining based flow cytometric analysis (reference value: 0.30 %); format: functional
[16] = test system: Gemcitabine-resistant PANC-1; assay: Cell cycle distribution in human Gemcitabine-resistant PANC-1 cells assessed as S phase cells at 40 nM incubated for 24 hrs by RNase/PI staining based flow cytometric analysis (reference value: 17.32 %); format: functional
[17] = test system: Gemcitabine-resistant PANC-1; assay: Induction of cell cycle arrest in human Gemcitabine-resistant PANC-1 cells assessed as downregulation of Cdc2 protein expression level at 40 to 160 nM incubated for 24 hrs by Western blot analysis; format: functional, cell-based; settings: dose 40-160 nM
[18] = test system: Gemcitabine-resistant PANC-1; assay: Induction of cell cycle arrest in human Gemcitabine-resistant PANC-1 cells assessed as downregulation of cyclin D1 protein expression level at 40 to 160 nM incubated for 24 hrs by Western blot analysis; format: functional, cell-based; settings: dose 40-160 nM
[19] = test system: Gemcitabine-resistant PANC-1; assay: Induction of cell cycle arrest in human Gemcitabine-resistant PANC-1 cells assessed as upregulation of cyclin B1 protein expression level at 40 to 160 nM incubated for 24 hrs by Western blot analysis; format: functional, cell-based; settings: dose 40-160 nM
[20] = test system: Gemcitabine-resistant PANC-1; assay: Induction of apoptosis in human Gemcitabine-resistant PANC-1 cells assessed as total cell death at 160 nM incubated for 48 hrs by Annexin V-FITC/PI staining based flow cytometric analysis relative to control; format: functional
[21] = test system: Gemcitabine-resistant PANC-1; assay: Induction of apoptosis in human Gemcitabine-resistant PANC-1 cells assessed as upregulation of cleaved PARP level at 160 nM incubated for 48 hrs by Western blot analysis; format: functional, cell-based
[22] = Toxicity in male BALB/c nude mouse at 40 mg/kg, ip; format: organism-based; settings: in vivo
[23] = Toxicity in male BALB/c nude mouse assessed as animal death at 40 mg/kg, ip; format: organism-based; settings: in vivo
[24] = Toxicity in male BALB/c nude mouse xenografted with human Gemcitabine-resistant PANC-1 cells assessed as body weight change at 10 mg/kg, ip administered three times in a week for 20 days; format: organism-based; settings: in vivo, 480 h, time 20 day

In the case of `CC(=O)Oc1ccc2[nH]c3c(c2c1)CCN1C(=O)c2ccccc2N(C)[C@H]31`, the IC50 at 72 h [1] is reported as over 50 µM, the inhibition [2] is reported as “Active” and the Activity (PANC-1) is reported as “inactive”. The Activity [3] was “Active”, the Activity [4] was “inactive” and the inhibition [5] was “Active”. The Activity [6] was “Active”, the Activity [7] was “Active” and the Activity [8] was “Active”. For the same compound, the Activity [9] was “Active”, the Activity [10] was “inactive” and the Activity [11] was “inactive”. For the same compound, the Activity [12] was “inactive”, the Activity [13] was 0.34% and the Activity [14] was 1.31%. For the same compound, the Activity [15] was 1.6%, the Activity [16] was 17.71% and the Activity [17] was “Active”. For the same compound, the Activity [18] was “Active”, the Activity [19] was “Active” and the Activity [20] was 24.95%. For the same compound, the Activity [21] was “Active”, the Activity [22] was “Non-Toxic” and the Activity [23] was “Non-Toxic”. The Activity [24] was “Non-Toxic”.
